Results taken from patent publication US8759339B2, “Pyrrolo[2,1-c][1,4]naphthodiazepine linked piperazine compounds and a process for the preparation thereof” (Council of Scientific & Industrial Research, priority 2011, dated 2014).
Read-outs that look alike come from different tables or passages of the source.

How the values were obtained:
[1] = tested on: calf thymus DNA (CT-DNA); assay: Thermal denaturation studies with duplex-form calf thymus DNA; format: binding; settings: [PND]/[DNA] molar ratio 1:5, CT-DNA 100 μM, ligand 20 μM, aqueous sodium phosphate buffer pH 7; for ΔTm after incubation at 37° C. for 0 hr: 0 hr at 37° C.; for ΔTm after incubation at 37° C. for 18 hrs: 18 hrs at 37° C.
Protocol: Compounds have been subjected to thermal denaturation studies with duplex-form calf thymus DNA (CT-DNA) using an modification of a reported procedure (Newman, M. S. Carcinog-compr. Surv. 1976, 1, 203; (b) Hecht, S. S.; Loy, M.; Hoffman, Carcinog-compr. Surv. 1976, 1, 325). Working solutions in aqueous buffer (10 mM NaH2PO4/Na2HPO4, 1 mM Na2EDTA, pH 7.00+0.01) containing CT-DNA (100 μm in phosphate) and the PND (pyrrolo naphtha diazepine) (20 μm) have been prepared by addition of concentrated PND (pyrrolo naphtha diazepine) solutions in DMSO to obtain a fixed [PND]/[DNA] molar ratio of 1:5. The DNA-PND (pyrrolo naphtha diazepine) solutions have been incubated at 37° C. for 0 and 18 h prior to analysis. Samples have been monitored at 260 nm using a Beckman DU-800 spectrophotometer fitted with high performance temperature controller, and heated at 1° C. min in the 40-110° C. range. DNA helix→coil transition temperatures (Tm) have been obtained from the maxima in the d(A260)/dT derivative plots. Drug-induced alterations in DNA melting behavior are given by: ΔTm=Tm(DNA+PND)−Tm(DNA alone), where the Tm value for the PND-free CT-DNA is 69.1±0.01.
The DNA binding activity for these novel substituted piperazine linked pyrrolo naphtho diazepine hybrids has been examined by thermal denaturation studies using calf thymus (CT) DNA. […] The data for some of the compounds are included in Table 1 for comparison.

[2] = tested on: A549 lung cancer cell line; assay: In vitro anticancer activity, MTT assay; format: cell-based, human; settings: for in-vitro cytotoxicity in lung cancer cell line (A549): result in words
Protocol: (§1) In vitro biological activity studies were carried out at the pharmacology division, IICT, Hyderabad. The compounds were evaluated for in vitro anticancer activity against eight tumour cell lines derived from […] cancer types (breast, lung, liver, skeletal, kidney, prostrate, small intestine) as shown in Table 2. For each compound, dose response curves for each cell line were measured at a minimum of five concentrations at 10 fold dilutions. A protocol of 48 h continuous drug exposure was used and a MTT assay was used to estimate cell viability or growth. The concentration causing 50% inhibition (IC50) compared with the control was calculated. Some of the compounds have been evaluated for their in vitro cytotoxicity in eight cell lines from seven human cancer types. The results are expressed as IC50 determined relative to that of untreated control cells (Table-2).

[3] = tested on: NCIH460 large cell lung cancer cell line; assay: In vitro anticancer activity, MTT assay; format: cell-based, human; settings: for IC50: large cell lung cancer cell line, MTT, 48 h continuous drug exposure; for in-vitro cytotoxicity in large cell lung cancer cell line (NCIH460): result in words
Protocol: as §1

[4] = tested on: PC-3 prostrate cancer cell line; assay: In vitro anticancer activity, MTT assay; format: cell-based, human; settings: for IC50: prostrate cancer cell line, MTT, 48 h continuous drug exposure; for in-vitro cytotoxicity in prostrate cancer cell line (PC-3): result in words
Protocol: as §1

[5] = tested on: HEPG2 liver cancer cell line; assay: In vitro anticancer activity, MTT assay; format: cell-based, human; settings: for in-vitro cytotoxicity in liver cancer cell line (HEPG2): result in words
Protocol: as §1

[6] = tested on: MCF7 breast cancer cell line; assay: In vitro anticancer activity, MTT assay; format: cell-based, human; settings: for IC50: breast cancer cell line, MTT, 48 h continuous drug exposure; for in-vitro cytotoxicity in breast cancer cell line (MCF-7): result in words
Protocol: as §1

[7] = tested on: L-6 skeletal cancer cell line; assay: In vitro anticancer activity, MTT assay; format: cell-based; settings: result in words
Protocol: as §1

[8] = tested on: COS-1 kidney cancer cell line; assay: In vitro anticancer activity, MTT assay; format: cell-based; settings: for in-vitro cytotoxicity in kidney cancer cell line (COS-1): result in words
Protocol: as §1

[9] = tested on: L-6; assay: In vitro anticancer activity, MTT assay; format: cell-based; settings: skeletal cancer cell line; MTT, 48 h continuous drug exposure
Protocol: as §1

[10] = In vitro anticancer activity, MTT assay; format: cell-based; settings: kidney cancer cell line, MTT, 48 h continuous drug exposure
Protocol: as §1

[11] = tested on: IEC-6 small intestine cell line; assay: In vitro anticancer activity, MTT assay; format: cell-based; settings: for in-vitro cytotoxicity in small intestine cancer cell line (IEC-6): result in words
Protocol: as §1

[12] = lung cancer cell line, MTT, 48 h continuous drug exposure, read-out: IC50 A549
[13] = liver cancer cell line, MTT, 48 h continuous drug exposure, read-out: IC50 HEPG2
[14] = small intestine cell line, MTT, 48 h continuous drug exposure, read-out: IC50 IEC-6

Row | Compound | IC50 [2, 12] | IC50 [3] | IC50 [4] | IC50 [5, 13] | IC50 [6] | IC50 ([10]; read-out: IC50 COS-1) | IC50 [11, 14] | ΔTm after incubation at 37° C. for 0 hr [1] | ΔTm after incubation at 37° C. for 18 hrs [1] | in-vitro cytotoxicity in lung cancer cell line (A549) [2] | in-vitro cytotoxicity in large cell lung cancer cell line (NCIH460) [3] | in-vitro cytotoxicity in prostrate cancer cell line (PC-3) [4] | in-vitro cytotoxicity in liver cancer cell line (HEPG2) [5] | in-vitro cytotoxicity in breast cancer cell line (MCF-7) [6] | in-vitro cytotoxicity in skeletal cancer cell line (L-6) [7] | in-vitro cytotoxicity in kidney cancer cell line (COS-1) [8] | IC50 [9] | in-vitro cytotoxicity in small intestine cancer cell line (IEC-6) [11] | also measured
1 | COc1cc2cc3c(cc2cc1OCCN1CCN(c2ncccn2)CC1)N=C[C@@H]1CCCN1C3=O [13a, 8-Methoxy-9-(2-[4-(2-pyrimidinyl)piperazino]ethoxy)-(13aS)-1,2,3,13a-tetrahydro-5H-pyrrolo[2,1-c][1,4]naphthodiazepin-5-one] | 0.86 µM | 0.26 µM | 0.08 µM | 0.04 µM | 0.04 µM | 1.87 µM | 0.02 µM | 5.0 °C | 6.5 °C | exhibiting in-vitro cytotoxicity | exhibiting in-vitro cytotoxicity | exhibiting in-vitro cytotoxicity | exhibiting in-vitro cytotoxicity | exhibiting in-vitro cytotoxicity | exhibiting in-vitro cytotoxicity | exhibiting in-vitro cytotoxicity | 0.61 µM | exhibiting in-vitro cytotoxicity | –
2 | COc1cc2cc3c(cc2cc1OCCN1CCN(c2ccccn2)CC1)N=C[C@@H]1CCCN1C3=O [12a, 8-Methoxy-9-(2-[4-(2-pyridyl)piperazino]ethoxy)-(13aS)-1,2,3,13a-tetrahydro-5H-pyrrolo[2,1-c][1,4]naphthodiazepin-5-one] | 0.32 µM | 0.24 µM | 0.1 µM | 0.22 µM | 0.01 µM | 4.32 µM | 0.16 µM | 5.8 °C | 7.1 °C | exhibiting in-vitro cytotoxicity | exhibiting in-vitro cytotoxicity | exhibiting in-vitro cytotoxicity | exhibiting in-vitro cytotoxicity | exhibiting in-vitro cytotoxicity | exhibiting in-vitro cytotoxicity | exhibiting in-vitro cytotoxicity | 0.86 µM | exhibiting in-vitro cytotoxicity | –
3 | COc1cc2cc3c(cc2cc1OCCN1CCN(c2ccccc2)CC1)C(=O)N1CCC[C@H]1C=N3 [19a, 9-Methoxy-8-[2-(4-phenylpiperazino)ethoxy]-(3aS)-1,2,3,13a-tetrahydro-5H-pyrrolo[2,1-c][1,4]naphthodiazepin-5-one] | – | – | – | – | – | – | – | 6.5 °C | 7.3 °C | exhibiting in-vitro cytotoxicity | exhibiting in-vitro cytotoxicity | exhibiting in-vitro cytotoxicity | exhibiting in-vitro cytotoxicity | exhibiting in-vitro cytotoxicity | exhibiting in-vitro cytotoxicity | exhibiting in-vitro cytotoxicity | 0.26 µM | exhibiting in-vitro cytotoxicity | IC50 ([2]; Homo sapiens, A549, lung cancer cell line, MTT, 48 h continuous drug exposure, read-out: IC50 A549): 9.9 µM; IC50 ([2]; Homo sapiens, A549, range over the listed compounds, exposure period of at least 48 hrs, read-out: IC50 against lung cancer cell lines): 0.02 to 11.9 µM; IC50 ([3]; Homo sapiens, NCI-H460): 0.006 µM; IC50 ([4]; Homo sapiens): 0.3 µM; IC50 ([5]; Homo sapiens, HepG2, liver cancer cell line, MTT, 48 h continuous drug exposure, read-out: IC50 HEPG2): 0.04 µM; IC50 ([5]; Homo sapiens, HepG2, range over the listed compounds, exposure period of at least 48 hrs, read-out: IC50 against liver cancer cell lines): 0.02 to 7.32 µM; IC50 ([6]; Homo sapiens, MCF7): 0.18 µM; IC50 ([8]; COS-1, range over the listed compounds, exposure period of at least 48 hrs, read-out: IC50 against kidney cancer cell lines): 0.8 to 4.32 µM; IC50 ([10]; COS-1): 0.8 µM; IC50 ([11]; IEC-6, range over the listed compounds, exposure period of at least 48 hrs, read-out: IC50 against small intestine cancer cell lines): 0.01 to 5.84 µM; IC50 ([11]; IEC-6, small intestine cell line, MTT, 48 h continuous drug exposure, read-out: IC50 IEC-6): 0.01 µM

The remaining compounds from weak to strong by IC50 [2, 12], led by results:

Row | IC50 [2, 12] | IC50 [3] | IC50 [4] | IC50 [5, 13] | IC50 [6] | IC50 ([10]; read-out: IC50 COS-1) | IC50 [11, 14] | Compound | ΔTm after incubation at 37° C. for 0 hr [1] | ΔTm after incubation at 37° C. for 18 hrs [1] | in-vitro cytotoxicity in lung cancer cell line (A549) [2] | in-vitro cytotoxicity in large cell lung cancer cell line (NCIH460) [3] | in-vitro cytotoxicity in prostrate cancer cell line (PC-3) [4] | in-vitro cytotoxicity in liver cancer cell line (HEPG2) [5] | in-vitro cytotoxicity in breast cancer cell line (MCF-7) [6] | in-vitro cytotoxicity in skeletal cancer cell line (L-6) [7] | in-vitro cytotoxicity in kidney cancer cell line (COS-1) [8] | IC50 [9] | in-vitro cytotoxicity in small intestine cancer cell line (IEC-6) [11] | also measured
4 | 0.11 µM | 0.02 µM | 0.02 µM | 0.02 µM | 0.002 µM | 0.91 µM | 0.01 µM | 9-Methoxy-8-(2-chloroethoxy)-(13aS)-1,2,3,13a-tetrahydro-5H-pyrrolo[2,1-c][1,4]naphthodiazepine-5-one [2a] | 7.1 °C | 9.5 °C | exhibiting in-vitro cytotoxicity | exhibiting in-vitro cytotoxicity | exhibiting in-vitro cytotoxicity | exhibiting in-vitro cytotoxicity | exhibiting in-vitro cytotoxicity | exhibiting in-vitro cytotoxicity | exhibiting in-vitro cytotoxicity | 0.002 µM | exhibiting in-vitro cytotoxicity | –
5 | 0.02 µM | 0.3 µM | 0.39 µM | 0.52 µM | 0.05 µM | 3.06 µM | 0.02 µM | 8-Methoxy-9-(2-chloroethoxy)-(13aS)-1,2,3,13a-tetrahydro-5H-pyrrolo[2,1-c][1,4]naphthodiazepine-5-one [1a] | 6.2 °C | 7.6 °C | exhibiting in-vitro cytotoxicity | exhibiting in-vitro cytotoxicity | exhibiting in-vitro cytotoxicity | exhibiting in-vitro cytotoxicity | exhibiting in-vitro cytotoxicity | exhibiting in-vitro cytotoxicity | exhibiting in-vitro cytotoxicity | 1.08 µM | exhibiting in-vitro cytotoxicity | –
